Earlier results as cited in patent US20220265792A1, “METHODS FOR TREATING SOLID TUMORS” (Breakbio Corp., priority 2019, published 2022).

Key:
[1] = system: Treg cells; conditions: 50 mg bid seven days, seven days off, another seven days of 50 mg bid
[2] = system: colorectal cancer
[3] = system: lung, pancreatic
[4] = system: Renal Cell Carcinoma; conditions: human, in vivo
[5] = system: mCRC patients; conditions: 20 μg/Kg/day for 14 days, 1 to 3 cycles

O=P1(N(CCCl)CCCl)NCCCO1 (racemic) [cyclophosphamide, (RS)—N,N-bis(2-chloroethyl)-1,3,2-oxazaphosphinan-2-amine 2-oxide]
effect on Treg cells [1]: significantly depleted Treg cells

COc1cc2nccc(Oc3ccc(NC(=O)NC4CC4)c(Cl)c3)c2cc1C(N)=O [Lenvatinib]
clinical effect as monotherapy [2]: modest clinical effect

CNC(=O)c1cc(Oc2ccc(NC(=O)Nc3ccc(Cl)c(C(F)(F)F)c3)c(F)c2)ccn1 [regorafenib]
clinical activity as single agent [3]: modest clinical activity

Bevacizumab: monoclonal antibody binding circulating VEGF-A
intra-tumoral T-cell infiltration [4]: augmented intra-tumoral T-cell infiltration

B1: FLT3L: FMS-like tyrosine kinase 3 ligand, expands and mobilizes antigen presenting cells (protein, UniProt P49771 27-235, looked up)
Fms-related tyrosine kinase 3 …: TQDCSFQHSPISSDFAVKIRELSDYLLQDYPVTVASNLQDEELCGGLWRLVLAQRWMERLKTVAGSKMQGLLERVNTEIHFVTKCAFQPPPSCLRFVQTNISRLLQETSEQLVALKPWITRQNFSRCLELQCQPDSSTLPPPWSPRPLEATAPTAPQPPLLLLLLLPVGLLLLAAAWCLHWQRTRRRTPRPGEQVPPVPSPQDLLLVEH
number of APCs observed on the periphery of tumors [5]: significantly increased
percentage of APCs in PBMCs ([5]; from 2.4%): 8.8%
number of leukocytes in peripheral blood ([5]; from 5,900/mm^3): 11,200 /mm^3
